In patent US20260130372A1 (SYNGENTA CROP PROTECTION AG, priority 2022, published 2026):

How the values were obtained:
Botrytis cinerea = experiment: liquid culture assay, 96well plate, photometric growth inhibition; type: cell-based
Procedure: (§1) Streptimidone (CAS: 738-72-7) was purchased from a commercial vendor. A stock solution for streptimidone was produced in DMSO (max. 10 mg/ml). Malonomicin was produced according to Law et al, 2018 (Nature Catalys is |VOL 1|December 2018|977-984). A stock solution of malonomicin was produced in water plus 0.025% Tween20.
Assays to test efficacy of mixtures of streptimidone in combination with malonomicin on the control of fungal pathogens in a liquid culture assay were designed for a 96well plate.
Table1: outline of 96well testplate including concentration of compounds per well. The upper number in the cell indicates malonomicin concentration (ppm), the lower number streptimidone concentration (ppm). Column (1) holds a dilution series of streptimidone, row (H) holds a dilution series of malonomicin, column (12) holds cells representing untreated check.
The 96 well plate design allows to compare disease control of the mixture with disease control of the respective single compound at the same rate.
A master plate with 10× concentrated solution of the compound stock solutions diluted in water plus 0.025% Tween20 was prepared. The concentration of DMSO (from the stock of streptimidone) and Tween20 was kept constant in all cells of the master plate. 10 μl was transferred from the master plate to a 96well test plate. The nutrient broth containing the fungal spores/mycelia fragments was then added to the test plate to give an end concentration of 1× for the tested compounds (as outlined in table 1). The test plates were incubated in the dark at […] and 96% rh. The inhibition of fungal growth was determined photometrically after ca 3 days, and percent fungal growth reduction relative to the untreated check was calculated. Efficacy of the mixtures was tested on a fungal species: Botrytis cinerea (EPPO code: BOTRCI)
Conidia of the fungus from cryogenic storage were directly mixed into nutrient broth (Vogel's minimal media).

Puccinia recondita [1] = experiment: leaf disc assay on wheat leaf segments, preventive spray timing; type: in vivo
Procedure: as §1, with “1|DECEMBER” for “1|December”
(§2) Assays to test efficacy of mixtures of streptimidone in combination with malonomicin on the control of fungal pathogens in a leaf disc assay were designed for two 24well plates.
(§3) Table 5 and table 6: Outline of 24well testplate(1) and testplate(2) including concentration of compounds sprayed per well. The upper number in the cell indicates streptimidone concentration (ppm), the lower number malonomicin concentration (ppm). Column (1) holds a dilution series of streptimidone, row (2-D) holds a dilution series of malonomicin. Well 2-D-(1) represents an untreated check. This design was applied for tests including Puccinia recondita (EPPO code: PUCCRE) with preventive and curative spray timing.
(§4) A first set of master plates with 1× concentrated spray solution of the streptimidone stock diluted in water with concentrations according to table 5 or table 6, respectively, was prepared. Each well contained 2% DMSO and 0.025% Tween20. Accordingly, a second set of master plates with 1× concentrated malonomicin stock diluted in water was prepared. Each well of the second set contained 0.025% Tween20. Leaf segments placed on agar in 24well plates are sprayed with 8 ul of solution from the master plate containing streptimidone and the leaf segments were let to dry, followed 2 hours later by 8 ul of solution from the master plate containing malonomicin. After second sprays have dried, leaf segments are infected with fungal spores to obtrain a preventive application timing. Alternativeley, leaf segments infected one day before spray of the compounds are used, resulting in a curative spray timing. In addition, several plates were produced where leaf segments were sprayed 2× in absence of test compound (with only DMSO and Tween20), representing the untreated check samples. For each leaf segment percent leaf coverage of disease symptoms was assessed. Percent leaf coverage reduction relative to the untreated check was calculated. Efficacy of the mixtures was tested in duplicate and on different fungal species. Reported efficacy values are the average of two replicate results.
Puccinia recondita (EPPO Code: PUCCRE) with Preventive Spray Timing.
Wheat (cultivar Kanzler) leaf segments are placed on agar in multiwell plates (24-well format) and sprayed with test solutions (8 ul per well). After drying, the leaf disks are inoculated with a spore suspension of the fungus. After appropriate incubation the activity of a compound is assessed 8 dpi (days after inoculation) as preventive fungicidal activity.

Puccinia recondita [2] = experiment: leaf disc assay on wheat leaf segments, curative spray timing; type: in vivo
Procedure: as §1, with “1|DECEMBER” for “1|December”
as §2, §3, §4
Puccinia recondita (EPPO Code: PUCCRE) with Curative Spray Timing.
Wheat (cultivar Kanzler) leaf segments are placed on agar in multiwell plates (24-well format). The leaf disks are then inoculated with a spore suspension of the fungus. One day after inoculation the test solution is sprayed (8 ul per well). After appropriate incubation the activity of a compound is assessed 8 dpi (days after inoculation) as curative fungicidal activity

Structure (SMILES): NC[C@@H]1NC(=O)C(C(=O)CC(NC(=O)[C@@H](N)CO)(C(=O)O)C(=O)O)=C1O [malonomicin, {[(2S)-2-amino-3-hydroxypropanoyl]amino}{2-[(5S)-5-(aminomethyl)-4-hydroxy-2-oxo-2,5-dihydro-1H-pyrrol-3-yl]-2-oxoethyl}malonic acid]
- control of fungal growth (Botrytis cinerea; well H(2), malonomicin 1000 ppm solo): 70%
- control of fungal growth (Botrytis cinerea; well H(3), malonomicin 500 ppm solo): 70%
- control of fungal growth (Botrytis cinerea; well H(4), malonomicin 250 ppm solo): 70%
- control of fungal growth (Botrytis cinerea; well H(5), malonomicin 125 ppm solo): 70%
- control of fungal growth (Botrytis cinerea; well H(6), malonomicin 62.5 ppm solo): 70%
- control of fungal growth (Botrytis cinerea; well H(7), malonomicin 31.25 ppm solo): 50%
- control of fungal growth (Botrytis cinerea; well H(8), malonomicin 15.63 ppm solo): 0%
- control of fungal growth (Botrytis cinerea; well H(9), malonomicin 7.81 ppm solo): 0%
- control of fungal growth (Botrytis cinerea; well H(10), malonomicin 3.00 ppm solo): 0%
- control of fungal growth (Botrytis cinerea; well H(11), malonomicin 1.00 ppm solo): 0%
- control of fungal growth (reduction of symptoms on the leaf segment) (Puccinia recondita [1]; well 2-D(2), malonomicin 200 ppm solo): 100%
- control of fungal growth (reduction of symptoms on the leaf segment) (Puccinia recondita [1]; well 2-D(3), malonomicin 20 ppm solo): 100%
- control of fungal growth (reduction of symptoms on the leaf segment) (Puccinia recondita [1]; well 2-D(4), malonomicin 6.67 ppm solo): 80%
- control of fungal growth (reduction of symptoms on the leaf segment) (Puccinia recondita [1]; well 2-D(5), malonomicin 2.22 ppm solo): 10%
- control of fungal growth (reduction of symptoms on the leaf segment) (Puccinia recondita [1]; well 2-D(6), malonomicin 0.74 ppm solo): 0%
- control of fungal growth (reduction of symptoms on the leaf segment) (Puccinia recondita [2]; curative, well 2-D(2), malonomicin 200 ppm solo): 100%
- control of fungal growth (reduction of symptoms on the leaf segment) (Puccinia recondita [2]; curative, well 2-D(3), malonomicin 20 ppm solo): 100%
- control of fungal growth (reduction of symptoms on the leaf segment) (Puccinia recondita [2]; curative, well 2-D(4), malonomicin 6.67 ppm solo): 100%
- control of fungal growth (reduction of symptoms on the leaf segment) (Puccinia recondita [2]; curative, well 2-D(5), malonomicin 2.22 ppm solo): 70%
- control of fungal growth (reduction of symptoms on the leaf segment) (Puccinia recondita [2]; curative, well 2-D(6), malonomicin 0.74 ppm solo): 35%

Structure (SMILES): C=C/C(C)=C/[C@H](C)C(=O)C[C@H](O)CC1CC(=O)NC(=O)C1 [streptimidone, Streptimidone]
- control of fungal growth (Botrytis cinerea; well A(1), streptimidone 100 ppm solo): 0%
- control of fungal growth (Botrytis cinerea; well B(1), streptimidone 50 ppm solo): 0%
- control of fungal growth (Botrytis cinerea; well C(1), streptimidone 25 ppm solo): 0%
- control of fungal growth (Botrytis cinerea; well D(1), streptimidone 12.5 ppm solo): 0%
- control of fungal growth (Botrytis cinerea; well E(1), streptimidone 6.25 ppm solo): 0%
- control of fungal growth (Botrytis cinerea; well F(1), streptimidone 3.125 ppm solo): 0%
- control of fungal growth (Botrytis cinerea; well G(1), streptimidone 1.56 ppm solo): 0%
- control of fungal growth (reduction of symptoms on the leaf segment) (Puccinia recondita [1]; well 1-A(1), streptimidone 200 ppm solo): 10%
- control of fungal growth (reduction of symptoms on the leaf segment) (Puccinia recondita [1]; well 1-B(1), streptimidone 100 ppm solo): 35%
- control of fungal growth (reduction of symptoms on the leaf segment) (Puccinia recondita [1]; well 1-C(1), streptimidone 50 ppm solo): 0%
- control of fungal growth (reduction of symptoms on the leaf segment) (Puccinia recondita [1]; well 1-D(1), streptimidone 25 ppm solo): 0%
- control of fungal growth (reduction of symptoms on the leaf segment) (Puccinia recondita [1]; well 2-A(1), streptimidone 12.5 ppm solo): 10%
- control of fungal growth (reduction of symptoms on the leaf segment) (Puccinia recondita [1]; well 2-B(1), streptimidone 6.25 ppm solo): 0%
- control of fungal growth (reduction of symptoms on the leaf segment) (Puccinia recondita [1]; well 2-C(1), streptimidone 3.13 ppm solo): 0%
- control of fungal growth (reduction of symptoms on the leaf segment) (Puccinia recondita [2]; curative, well 1-A(1), streptimidone 200 ppm solo): 20%
- control of fungal growth (reduction of symptoms on the leaf segment) (Puccinia recondita [2]; curative, well 1-B(1), streptimidone 100 ppm solo): 20%
- control of fungal growth (reduction of symptoms on the leaf segment) (Puccinia recondita [2]; curative, well 1-C(1), streptimidone 50 ppm solo): 25%
- control of fungal growth (reduction of symptoms on the leaf segment) (Puccinia recondita [2]; curative, well 1-D(1), streptimidone 25 ppm solo): 35%
- control of fungal growth (reduction of symptoms on the leaf segment) (Puccinia recondita [2]; curative, well 2-B(1), streptimidone 6.25 ppm solo): 0%
- control of fungal growth (reduction of symptoms on the leaf segment) (Puccinia recondita [2]; curative, well 2-C(1), streptimidone 3.13 ppm solo): 0%
- control of fungal growth (reduction of symptoms on the leaf segment) (Puccinia recondita [2]; in vivo): 0%
